The source made the active and inactive calls.
How the values were obtained:
[1] = microbe, parasite or virus in culture; assay type: functional; conditions: Mycobacterium tuberculosis
[2] = P. falciparum Dd2 growth inhibitors, dose response, SYBR Green, cherry-picked samples (AID 1159567); assay type: functional, cell-based
[3] = target: T1, Carboxy-terminal domain RNA polymerase II polypeptide A small phosphatase 1 (Homo sapiens, UniProt Q9GZU7); assay: inhibitors of CTDSP1, concentration-response testing, biochemical assay, absorbance-based, actives from ultra-high-throughput screening (AID 540297); assay type: functional
T1 sequence (Q9GZU7 whole entry): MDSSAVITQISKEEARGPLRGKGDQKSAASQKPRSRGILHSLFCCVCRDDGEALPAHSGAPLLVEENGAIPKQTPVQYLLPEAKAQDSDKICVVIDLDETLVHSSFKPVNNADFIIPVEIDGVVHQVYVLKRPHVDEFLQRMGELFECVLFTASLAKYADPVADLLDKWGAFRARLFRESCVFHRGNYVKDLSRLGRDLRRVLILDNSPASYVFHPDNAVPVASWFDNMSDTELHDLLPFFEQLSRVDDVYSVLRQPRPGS

[4] = ZM109 Env clade C HIV-1 fusion inhibitors, dose response, HeLa effector, CEM target cells, luciferase, cherry-pick (AID 652058); assay type: functional, cell-based
[5] = inhibitors of HIV Env-driven cell fusion, dose response, cherry-pick (AID 652057); assay type: functional, cell-based
[6] = inhibitors of clade B AD8 Env fusion, dose response, cell-based, cherry-pick (AID 652062); assay type: functional;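 further: luciferase signal from cell-cell fusion driven by HIV-1 clade B AD8 Env; potency is for inhibitors of fusion seen as a drop in luminescence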
[7] = target: Eukaryotic translation initiation factor 4E (Mus musculus, UniProt P63073); assay: eIF4E–eIF4G protein interaction inhibitors, dose response, biochemical, TR-FRET (AID 855); assay type: functional;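 further: potency for disrupting eIF4E binding to eIF4GI seen as loss of FRET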
Eukaryotic translation initiation factor 4E, sequence (P63073 whole entry): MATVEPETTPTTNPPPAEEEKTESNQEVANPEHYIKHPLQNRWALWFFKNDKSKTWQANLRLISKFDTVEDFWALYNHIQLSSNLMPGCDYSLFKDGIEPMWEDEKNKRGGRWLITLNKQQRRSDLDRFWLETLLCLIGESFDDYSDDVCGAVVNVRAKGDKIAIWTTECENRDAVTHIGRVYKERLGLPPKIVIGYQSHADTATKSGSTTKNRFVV

[8] = cells; assay type: functional, cell-based
[9] = cells; assay type: functional, cell-based; remark: listed apart in the source
[10] = Luminescence Cell-Based Dose Retest to Confirm Inhibitors of Cancer Stem Cells. [Related pubchem assays (depositor defined):AID2717, AID2721]; assay type: functional, Homo sapiens; conditions: Homo sapiens
[11] = test system: Streptococcus sp. 'group A'; assay: growth inhibition of control SK(-) GAS strain, dose response, counter-screen for streptokinase expression inhibitor project, luminescence, kanamycin, BacTiterGlo, confirmation (AID 1900); assay type: functional, organism-based; conditions: read-out: EC50
[12] = cytotoxicity toward NIH3T3 fibroblasts, dose response, counter-screen, cell-based, ATP luminescence, mouse fibroblasts (AID 2010); assay type: functional;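 further: cells exposed to compound for about 90 hours before reading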
[13] = inhibitors of intracellular T. cruzi replication, confirmation, NIH3T3 host cells, beta-gal luminescence (AID 2044); assay type: functional, cell-based;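 further: intracellular parasites grown in NIH/3T3 mouse fibroblasts as host cells; luminescent beta-galactosidase reporter signal from transgenic T. cruzi replicating inside host cells; inhibitors lower the luminescence signal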
[14] = test system: Streptococcus; assay: Group A Streptococcus viability loss, dose response, counter-screen for streptokinase expression inhibitor project, luminescence, BacTiterGlo (AID 1915); assay type: functional, organism-based;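 further: potency for reduction of bacterial viability or growth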
[15] = target: T2, Streptokinase A (Streptococcus pyogenes serotype M1, UniProt P10520); assay: S. pyogenes streptokinase expression inhibitors, potency, dose response, plasminogen activation absorbance, OD405 (AID 1914); assay type: functional, Streptococcus pyogenes M1 GAS;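 further: secreted streptokinase activity via plasminogen activation per viability signal from cell pellet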
T2 sequence (P10520 whole entry): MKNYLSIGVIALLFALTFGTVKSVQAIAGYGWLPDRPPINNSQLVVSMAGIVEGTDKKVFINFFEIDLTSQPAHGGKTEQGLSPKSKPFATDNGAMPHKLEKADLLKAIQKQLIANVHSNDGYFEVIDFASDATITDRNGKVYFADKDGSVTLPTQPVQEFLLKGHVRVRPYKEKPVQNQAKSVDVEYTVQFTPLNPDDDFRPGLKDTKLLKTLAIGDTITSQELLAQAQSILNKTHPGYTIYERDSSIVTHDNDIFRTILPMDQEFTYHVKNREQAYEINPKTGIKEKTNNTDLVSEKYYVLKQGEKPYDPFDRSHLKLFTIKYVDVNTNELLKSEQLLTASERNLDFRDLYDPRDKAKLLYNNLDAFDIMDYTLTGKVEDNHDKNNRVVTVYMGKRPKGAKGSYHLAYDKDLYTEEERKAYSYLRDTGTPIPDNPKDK

[16] = target: T3, Corticotropin-releasing factor receptor 2/Corticotropin-releasing factor-binding protein (Homo sapiens, UniProt P24387+Q13324); assay: activators of CRF receptor 2 with binding protein – uHTS hits, confirmation (AID 602473); assay type: functional; conditions: read-out: EC50_Mean
T3 sequence (Q13324 whole entry): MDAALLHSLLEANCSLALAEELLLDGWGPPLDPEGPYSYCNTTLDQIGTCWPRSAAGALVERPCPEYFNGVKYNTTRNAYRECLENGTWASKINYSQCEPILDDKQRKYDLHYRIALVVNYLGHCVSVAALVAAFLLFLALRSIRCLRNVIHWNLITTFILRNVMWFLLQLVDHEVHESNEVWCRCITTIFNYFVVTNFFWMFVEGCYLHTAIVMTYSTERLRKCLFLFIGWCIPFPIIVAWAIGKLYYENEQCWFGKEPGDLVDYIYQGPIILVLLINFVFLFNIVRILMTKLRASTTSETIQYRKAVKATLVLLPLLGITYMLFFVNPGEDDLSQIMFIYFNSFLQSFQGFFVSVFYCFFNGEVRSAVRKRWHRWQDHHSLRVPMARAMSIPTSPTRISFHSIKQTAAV
T3 sequence (P24387 whole entry): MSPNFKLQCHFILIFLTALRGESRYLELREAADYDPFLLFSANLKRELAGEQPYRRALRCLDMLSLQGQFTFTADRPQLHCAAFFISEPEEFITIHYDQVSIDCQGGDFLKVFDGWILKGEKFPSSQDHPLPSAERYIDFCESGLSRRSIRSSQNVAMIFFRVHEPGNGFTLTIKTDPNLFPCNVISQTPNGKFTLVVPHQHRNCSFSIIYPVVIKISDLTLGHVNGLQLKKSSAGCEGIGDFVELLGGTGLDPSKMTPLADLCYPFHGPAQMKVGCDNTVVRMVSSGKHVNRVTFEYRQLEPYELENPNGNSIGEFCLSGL

[17] = cells; assay type: functional
[18] = target: Induced myeloid leukemia cell differentiation protein Mcl-1 (Homo sapiens, UniProt Q07820); assay type: functional
Induced myeloid leukemia cell differentiation protein Mcl-1, sequence (Q07820 whole entry): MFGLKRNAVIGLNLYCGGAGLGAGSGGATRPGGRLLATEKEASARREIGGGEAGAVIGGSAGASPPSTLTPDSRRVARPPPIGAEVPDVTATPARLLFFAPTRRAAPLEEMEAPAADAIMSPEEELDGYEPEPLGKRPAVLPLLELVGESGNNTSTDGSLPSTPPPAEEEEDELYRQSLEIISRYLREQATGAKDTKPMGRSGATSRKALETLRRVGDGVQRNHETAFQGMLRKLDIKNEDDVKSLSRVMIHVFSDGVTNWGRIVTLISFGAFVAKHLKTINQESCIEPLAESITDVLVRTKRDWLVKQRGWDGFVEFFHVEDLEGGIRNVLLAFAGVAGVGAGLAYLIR

[19] = control 3'UTR Renilla luciferase suppression, dose response, counter-screen for Shn3 inhibitor project, cell-based, Clone20-Shn3RL, cherry-picked (AID 624133); assay type: functional
[20] = Shn3 3'UTR reporter inhibitors, dose response, cell-based, Clone20 osteoblasts, firefly luciferase, cherry-picked (AID 624132); assay type: functional;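 further: firefly luciferase luminescence from reporter carrying the Shn3 3'UTR in osteoblasts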

NNc1nc2ccc(Cl)cc2s1
CC50 [1]: > 40 µM (active)

C[C@H](CO)N1C[C@H](C)[C@H](CN(C)CC2CC2)Oc2ccc(NS(=O)(=O)c3ccc(Cl)cc3)cc2CC1=O
AC50 [2]: 5.58 µM (active)

O=C(CCS(=O)(=O)c1ccc(Br)cc1)NCc1ccc(F)cc1
IC50 [3]: 7.9 µM (active)

CCCNC(=O)C[C@H]1CC[C@@H]2[C@@H](COc3ccc(NC(=O)c4cccc(C(F)(F)F)c4)cc3C(=O)N2C)O1
AC50 [4]: 5.51 µM (active) | AC50 [5]: 36 µM (active) | AC50 [6]: 12.7 µM (active)

CCOC(=O)c1c(-c2cccc([N+](=O)[O-])c2)csc1NC(=O)CCCOc1ccccc1
IC50 [7]: > 64 µM (inactive)

O=C(CCS(=O)(=O)c1cccc2nsnc12)NCc1ccccc1Cl
IC50 [7]: > 64 µM (inactive)

CSc1ccc(/C=N/NC(=O)c2ccc(C)c(C)c2)cc1
IC50 [3]: 9.17 µM (active)

COc1ccc2nc(NC(=O)CSc3nccc(C)n3)sc2c1
EC50 [8]: > 350 µM (not active) | EC50 [9]: > 350 µM (not active)

CCOC(=O)/C(=N/Nc1ccccc1)c1csc(Nc2ccccc2)n1
AC50 [10]: 1.88 µM (active) | CC50 [1]: > 40 µM (active) | EC50 [11]: 3.92 µM (active) | EC50 [12]: > 30 µM (not active) | EC50 [13]: 1.39 µM (active) | EC50 [14]: 4.88 µM (active) | EC50 [15]: > 150 µM (not active)

Cc1ccc(C(=O)CSc2cc(C)nc(O)n2)cc1
EC50 [8]: > 350 µM (not active) | EC50 [9]: > 350 µM (not active)

O=c1c(/C=C(\O)c2ccc(F)cc2)nc2ccccc2n1-c1ccccc1
EC50 [16]: 7.18 µM (active)

O=C(Nc1nnc(C2=COCCO2)o1)c1ccc(Cc2ccccc2)cc1
CC50 [1]: > 40 µM (active) | IC50 [17]: 10.2 µM (active) | EC50 [11]: 2.54 µM (active) | EC50 [14]: 3.96 µM (active)

COC(=O)CNC(=O)COC(=O)C(Cc1ccccc1)NC(=O)c1ccco1 (stereo unspecified)
EC50 [16]: > 53 µM (inactive)

N#C[C@@H]1[C@@H](c2ccc(C#CC3CCCCC3)cc2)[C@H](CO)N1C(=O)Nc1ccc(F)cc1
AC50 [2]: 5.12 µM (active)

COc1ccc(C(=O)Nc2ccccc2C(N)=O)cc1
IC50 [7]: > 64 µM (inactive)

O=C1c2ccccc2C(=O)N1/N=C/c1ccc(O)c(O)c1O
IC50 [18]: 2.28 µM (active)

CC(C)c1cc(C(=O)Nc2cccc(Cl)c2)no1
IC50 [7]: > 64 µM (inactive)

C[C@H](CO)N1C[C@H](C)[C@@H](CN(C)Cc2ccc(Cl)c(Cl)c2)Oc2ccc(N(C)C)cc2C1=O
AC50 [4]: 5.9 µM (active) | AC50 [5]: 10.5 µM (active) | AC50 [6]: 8.23 µM (active)

CC(=O)O[C@H]1CC[C@@]2(C)C(=CC[C@H]3[C@@H]4CC[C@H](C(C)=O)[C@@]4(C)CC[C@@H]32)C1
AC50 [19]: 29 µM (active) | AC50 [20]: 28.5 µM (active)

C[C@@H](O)C1NC(=O)[C@H](CCCCN)NC(=O)c2cc([N+](=O)[O-])cc(I)c2NCCC[C@@H](C(N)=O)NC1=O (stereo partly specified)
IC50 [7]: > 64 µM (inactive)

Reference: ChEMBL document CHEMBL1201862, “PubChem BioAssay data set” (2004)
